± gives the expanded uncertainty stated by the source.
Conditions: for electrical conductivity / mass density / viscosity: 298.2 K, 101.33 kPa, Liquid; for electrical conductivity: Alternating current cell with electrodes; for mass density: Pycnometric method; for viscosity: rotary viscometer; for Normal melting temperature: Crystal; for Normal melting temperature / Glass transition temperature: DTA

CC(=O)[O-].[NH3+]CCO [2-hydroxyethylammonium acetate]
electrical conductivity: 0.0692 ± 0.0001 S/m
mass density: 1120 ± 26 kg/m3
viscosity: 640 mPa·s
Normal melting temperature: -70.9 ± 0.5 °C
Glass transition temperature: -75.8 ± 5 °C

O=CO.OCCN(CCO)CCO [triethanolamine formate]
Normal melting temperature: 67.6 ± 0.5 °C

NCCO.O=CO [2-hydroxyethylammonium formate]
electrical conductivity: 0.3291 ± 0.0001 S/m
mass density: 1204 ± 26 kg/m3
viscosity: 118 mPa·s
Normal melting temperature: -82.2 ± 0.5 °C
Glass transition temperature: -85.9 ± 5 °C

CC(O)C(=O)O.OCCN(CCO)CCO [triethanolamine lactate]
electrical conductivity: 0.009 ± 0.001 S/m
mass density: 1222 ± 26 kg/m3
viscosity: 455 mPa·s
Normal melting temperature: -54.8 ± 0.5 °C
Glass transition temperature: -59.4 ± 5 °C

CC(O)C(=O)[O-].[NH3+]CCO (stereo unspecified) [2-hydroxyethylammonium lactate]
electrical conductivity: 0.03775 ± 1e-05 S/m
mass density: 1202 ± 26 kg/m3
viscosity: 1200 mPa·s
Normal melting temperature: -58.5 ± 0.5 °C
Glass transition temperature: -63.7 ± 5 °C

CC(=O)O.OCCN(CCO)CCO [triethanolammonium acetate]
electrical conductivity: 0.04958 ± 1e-05 S/m
mass density: 1120 ± 26 kg/m3
viscosity: 342 mPa·s
Normal melting temperature: -72.2 ± 0.5 °C
Glass transition temperature: -78.8 ± 5 °C

Reference: the NIST ThermoML archive (doi:10.1021/je060479w)
